The source made the active and inactive calls. How the calls were made is not given here.
System: CCRIS mutagenicity, Ames/micronucleus/aberration tests
Test: CCRIS mutagenicity studies

COP(=O)(OC)C(O)C(Cl)(Cl)Cl (stereo not given)
mutagenic call (End Point: IN VIVO MICRONUCLEUS, Test System: PREIMPLANTATION EMBRYOS, Species: MOUSE, Strain/Sex: ICR FEMALE/EMBRYO, Route: MATERNAL SINGLE IP DOSE, EMBRYO HARVEST ON G.D 3): active; positive | mutagenic call (End Point: In vivo micronucleus, Test System: Micronucleated, binucleated and multinucleated hepatocytes, Species: Mouse, Strain/Sex: ddY/Male, Route: Intravenous): active; positive for binucleated and multinucleated cells when agent administered after | mutagenic call (Test System: AMES SALMONELLA TYPHIMURIUM, Strain/Indicator: TA97, Metabolic Activation: NONE, Method: SPOT TEST): inactive; negative | mutagenic call (Test System: AMES SALMONELLA TYPHIMURIUM, Strain/Indicator: TA97, Metabolic Activation: NONE, Method: STANDARD PLATE): inactive; negative | mutagenic call (Test System: AMES SALMONELLA TYPHIMURIUM, Strain/Indicator: TA97, Metabolic Activation: RAT, LIVER, S-9, NAPHTHOFLAVONE AND PHENOBARBITAL, Method: STANDARD PLATE): inactive; negative | mutagenic call (Test System: AMES SALMONELLA TYPHIMURIUM, Strain/Indicator: TA97, Metabolic Activation: RAT, LIVER, S-9, PHENOBARBITAL AND NAPHTHOFLAVONE, Method: SPOT TEST): inactive; negative | mutagenic call (Test System: AMES SALMONELLA TYPHIMURIUM, Strain/Indicator: TA98, Metabolic Activation: HAMSTER, LIVER, S-9, AROCLOR 1254 (10%), Method: PREINCUBATION): inactive; negative | mutagenic call (Test System: AMES SALMONELLA TYPHIMURIUM, Strain/Indicator: TA98, Metabolic Activation: NONE, Method: PREINCUBATION): inactive; negative | mutagenic call (Test System: AMES SALMONELLA TYPHIMURIUM, Strain/Indicator: TA98, Metabolic Activation: NONE, Method: SPOT TEST): inactive; negative | mutagenic call (Test System: AMES SALMONELLA TYPHIMURIUM, Strain/Indicator: TA98, Metabolic Activation: NONE, Method: STANDARD PLATE): inactive; negative | mutagenic call (Test System: AMES SALMONELLA TYPHIMURIUM, Strain/Indicator: TA98, Metabolic Activation: RAT, LIVER, S-9, AROCLOR 1254 (10%), Method: PREINCUBATION): inactive; negative | mutagenic call (Test System: AMES SALMONELLA TYPHIMURIUM, Strain/Indicator: TA98, Metabolic Activation: RAT, LIVER, S-9, NAPHTHOFLAVONE AND PHENOBARBITAL, Method: STANDARD PLATE): inactive; negative | mutagenic call (Test System: AMES SALMONELLA TYPHIMURIUM, Strain/Indicator: TA98, Metabolic Activation: RAT, LIVER, S-9, PHENOBARBITAL AND NAPHTHOFLAVONE, Method: SPOT TEST): inactive; negative | mutagenic call (Test System: AMES SALMONELLA TYPHIMURIUM, Strain/Indicator: TA100, Metabolic Activation: HAMSTER, LIVER, S-9, AROCLOR 1254 (10%), Method: PREINCUBATION): inactive; negative | mutagenic call (Test System: AMES SALMONELLA TYPHIMURIUM, Strain/Indicator: TA100, Metabolic Activation: NONE, Method: PREINCUBATION): inactive; negative | mutagenic call (Test System: AMES SALMONELLA TYPHIMURIUM, Strain/Indicator: TA100, Metabolic Activation: NONE, Method: SPOT TEST): inactive; negative | mutagenic call (Test System: AMES SALMONELLA TYPHIMURIUM, Strain/Indicator: TA100, Metabolic Activation: NONE, Method: STANDARD PLATE): inactive; negative | mutagenic call (Test System: AMES SALMONELLA TYPHIMURIUM, Strain/Indicator: TA100, Metabolic Activation: RAT, LIVER, S-9, AROCLOR 1254 (10%), Method: PREINCUBATION): inactive; negative | mutagenic call (Test System: AMES SALMONELLA TYPHIMURIUM, Strain/Indicator: TA100, Metabolic Activation: RAT, LIVER, S-9, NAPHTHOFLAVONE AND PHENOBARBITAL, Method: FLUCTUATION TEST): inactive; negative | mutagenic call (Test System: AMES SALMONELLA TYPHIMURIUM, Strain/Indicator: TA100, Metabolic Activation: RAT, LIVER, S-9, NAPHTHOFLAVONE AND PHENOBARBITAL, Method: PREINCUBATION): active; positive | mutagenic call (Test System: AMES SALMONELLA TYPHIMURIUM, Strain/Indicator: TA100, Metabolic Activation: RAT, LIVER, S-9, NAPHTHOFLAVONE AND PHENOBARBITAL, Method: STANDARD PLATE): inactive; negative | mutagenic call (Test System: AMES SALMONELLA TYPHIMURIUM, Strain/Indicator: TA100, Metabolic Activation: RAT, LIVER, S-9, PHENOBARBITAL AND NAPHTHOFLAVONE, Method: SPOT TEST): inactive; negative | mutagenic call (Test System: AMES SALMONELLA TYPHIMURIUM, Strain/Indicator: TA100, Metabolic Activation: S-9 MIX, Method: STANDARD PLATE): active; positive | mutagenic call (Test System: AMES SALMONELLA TYPHIMURIUM, Strain/Indicator: TA104, Metabolic Activation: NONE, Method: PREINCUBATION): active; positive | mutagenic call (Test System: AMES SALMONELLA TYPHIMURIUM, Strain/Indicator: TA104, Metabolic Activation: NONE, Method: STANDARD PLATE): inactive; negative | mutagenic call (Test System: AMES SALMONELLA TYPHIMURIUM, Strain/Indicator: TA104, Metabolic Activation: RAT, LIVER, S-9, NAPHTHOFLAVONE AND PHENOBARBITAL, Method: PREINCUBATION): active; positive | mutagenic call (Test System: AMES SALMONELLA TYPHIMURIUM, Strain/Indicator: TA104, Metabolic Activation: RAT, LIVER, S-9, NAPHTHOFLAVONE AND PHENOBARBITAL, Method: STANDARD PLATE): inactive; negative | mutagenic call (Test System: AMES SALMONELLA TYPHIMURIUM, Strain/Indicator: TA1535, Metabolic Activation: HAMSTER, LIVER, S-9, AROCLOR 1254 (10%), Method: PREINCUBATION): inactive; negative | mutagenic call (Test System: AMES SALMONELLA TYPHIMURIUM, Strain/Indicator: TA1535, Metabolic Activation: NONE, Method: PREINCUBATION): inactive; negative | mutagenic call (Test System: AMES SALMONELLA TYPHIMURIUM, Strain/Indicator: TA1535, Metabolic Activation: NONE, Method: SPOT TEST): inactive; negative | mutagenic call (Test System: AMES SALMONELLA TYPHIMURIUM, Strain/Indicator: TA1535, Metabolic Activation: NONE, Method: STANDARD PLATE): inactive; negative | mutagenic call (Test System: AMES SALMONELLA TYPHIMURIUM, Strain/Indicator: TA1535, Metabolic Activation: RAT, LIVER, S-9, AROCLOR 1254 (10%), Method: PREINCUBATION): inactive; negative | mutagenic call (Test System: AMES SALMONELLA TYPHIMURIUM, Strain/Indicator: TA1535, Metabolic Activation: RAT, LIVER, S-9, NAPHTHOFLAVONE AND PHENOBARBITAL, Method: PREINCUBATION): inactive; negative | mutagenic call (Test System: AMES SALMONELLA TYPHIMURIUM, Strain/Indicator: TA1535, Metabolic Activation: RAT, LIVER, S-9, NAPHTHOFLAVONE AND PHENOBARBITAL, Method: STANDARD PLATE): inactive; negative | mutagenic call (Test System: AMES SALMONELLA TYPHIMURIUM, Strain/Indicator: TA1535, Metabolic Activation: RAT, LIVER, S-9, PHENOBARBITAL AND NAPHTHOFLAVONE, Method: SPOT TEST): inactive; negative | mutagenic call (Test System: AMES SALMONELLA TYPHIMURIUM, Strain/Indicator: TA1537, Metabolic Activation: HAMSTER, LIVER, S-9, AROCLOR 1254 (10%), Method: PREINCUBATION): inactive; negative | mutagenic call (Test System: AMES SALMONELLA TYPHIMURIUM, Strain/Indicator: TA1537, Metabolic Activation: NONE, Method: PREINCUBATION): inactive; negative | mutagenic call (Test System: AMES SALMONELLA TYPHIMURIUM, Strain/Indicator: TA1537, Metabolic Activation: RAT, LIVER, S-9, AROCLOR 1254 (10%), Method: PREINCUBATION): inactive; negative | mutagenic call (Test System: CHINESE HAMSTER V-79, Strain/Indicator: V-79/OUABAIN, Metabolic Activation: NONE): inactive; negative | mutagenic call (Test System: E. COLI, Strain/Indicator: WP2, Metabolic Activation: NONE, Method: STANDARD PLATE): active; positive | mutagenic call (Test System: E. COLI, Strain/Indicator: WP2, Metabolic Activation: RAT, LIVER, S-9, AROCLOR 1254, Method: STANDARD PLATE): active; positive | mutagenic call (Test System: E. COLI, Strain/Indicator: WP2 UVRA, Metabolic Activation: NONE, Method: STANDARD PLATE): active; positive | mutagenic call (Test System: E. COLI, Strain/Indicator: WP2 UVRA, Metabolic Activation: RAT, LIVER, S-9, AROCLOR 1254, Method: STANDARD PLATE): active; positive | mutagenic call (Test System: UDS HUMAN CELLS, Strain/Indicator: EUE LINE/THY INCORP, Metabolic Activation: NONE, Method: AUTORADIOGRAPHY): active; positive | mutagenic call (Test System: UDS HUMAN FIBROBLASTS, Strain/Indicator: THY INCORP (NON-S-PHASE), Metabolic Activation: NONE, Method: LIQUID SCINTILLATION COUNTING): active; positive
